Source: patent publication US9018260B2, “Indanesulfamide derivatives” (Eisai R&D Management Co., Ltd., priority 2012, dated 2015)

What was measured:
[1] = tested on: corneal kindled male C57Bl/6 mice; experiment: Mouse corneal kindling model; assay type: in vivo; conditions: for Seizure severity score (Average): Racine's scale; for ED50: Mus musculus, po, dosage where 50% of animals showed seizure severity score 2 or less
Description: Male C57Bl/6 mice were stimulated twice daily for 10 days. The electric-stimulations with current intensities of 4.0 mA and duration of 3 s (pulse frequency 50 Hz) were applied via corneally placed saline-soaked copper electrodes.
Seizure severity was ranked according to a modified scoring system of the Racine's scale (Clin. Neurophysiol. 1972:32:281-294): Score 1, mild facial clonus and eye blinking; 2, severe facial clonus, head nodding, chewing; 3, unilateral or alternating forelimb clonus; 4, bilateral forelimb clonus with rearing; 5, bilateral forelimb clonus with rearing and falling; 6, tonic fore- and/or hindlimb extension. The fully kindled animals with the severity score 4 or more were used for evaluation.
Test compounds were dissolved in the vehicle (0.45% methyl cellulose/4.5% cremophor/10% DMSO), then orally (p.o.) or intraperitoneally (i.p.) administered to mice. The vehicle was orally administered as controls.
Electric stimulation was applied at 1 hour after p.o. or 20 minutes after i.p administration. Stimulation parameters were the same as during the kindling process. After electric stimulation, seizure severity was recorded for 30 seconds according to the Racine's scale.
Four to ten animals were used for calculation of average seizure severity score at each dose.

[2] = tested on: male ddY mice; experiment: Rota rod test; assay type: in vivo, mouse; conditions: route p.o.; TD50 in rota rod test divided by ED50 in corneal kindling model
Procedure: (§1) Rotarod apparatus (Rota-rod MK-660C, Muromachi-Kikai Co., Ltd.) was used for measurement. The motor was turned on and the rod rotation was continuously accelerated to a rate of 40 rpm over 180 sec.
(§2) Male ddY mice at an age of 5 weeks (Japan SLC) were used. On the experiment day, the mice were pretrained and only the animals able to remain on the rod for at least 60 s were selected for experiment.
(§3) Test compounds were dissolved in the vehicle (0.45% methyl cellulose/4.5% cremophor/10% dimethyl sulfoxide), then orally (p.o.) administered to mice. The vehicle was orally administered as controls. The effects of compounds were studied in groups of six to ten animals.
(§4) Latency for mice to fall off from the rod was measured. The toxic dose at which fall off latency shorten by 50% of vehicle control value (TD50) was calculated.
(§5) Therapeutic index were calculated by dividing the respective TD50 value in rota rod test by the ED50 value determined in the corneal kindling model.

[3] = Rota rod test; assay type: in vivo, mouse; conditions: male, ddY, mouse, in vivo, po; dose at which fall off latency shorten by 50% of vehicle control value
Procedure: as §1, §2, §3, §4, §5

[4] = dose 10 mg/kg, p.o., stimulation 1 hour after administration
[5] = dose 25 mg/kg, p.o., stimulation 1 hour after administration
[6] = dose 50 mg/kg, p.o., stimulation 1 hour after administration
[7] = dose 25 mg/kg, p.o., stimulation 1 hour after administration, 25 mg/kg
[8] = dose 10 mg/kg, p.o., stimulation 1 hour after administration, 10 mg/kg
[9] = dose 10 mg/kg, i.p., stimulation 20 minutes after administration
[10] = dose 25 mg/kg, i.p., stimulation 20 minutes after administration

Compound | Seizure severity score (Average) [1, 4] | Seizure severity score (Average) [1, 5] | also measured
NS(=O)(=O)N[C@H]1CCc2cccc(Cl)c21 (single isomer, unassigned) [Example 24, (+)-N-(7-chloro-2,3-dihydro-1H-inden-1-yl)sulfamide] | 3 | 0 | –
Cc1cc(Cl)cc2c1C(NS(N)(=O)=O)CC2 (racemic) [Example 30, (±)-N-(5-chloro-7-methyl-2,3-dihydro-1H-inden-1-yl)sulfamide] | 4.25 | 0.25 | –
NS(=O)(=O)NC1c2c(ccc(F)c2Cl)CC1(F)F (single isomer, unassigned; (-)) [Example 9, (−)-N-(7-chloro-2,2,6-trifluoro-2,3-dihydro-1H-inden-1-yl)sulfamide] | – | 0 | Seizure severity score (Average) [1, 6]: 0
NS(=O)(=O)N[C@@H]1c2c(Cl)cc(F)cc2C[C@H]1F (relative stereo) [Example 17, (−)-N-[(1R*,2R*)-7-chloro-2,5-difluoro-2,3-dihydro-1H-inden-1-yl]sulfamide] | 2 | 0 | Seizure severity score (Average) [1, 6]: 0
N#Cc1cc(Cl)c2c(c1)CC[C@H]2NS(N)(=O)=O [Example 22a, (+)-N-(7-chloro-5-cyano-2,3-dihydro-1H-inden-1-yl)sulfamide] | 3 | – | Seizure severity score (Average) [1, 7]: 0.25
Cc1cc(C#N)cc2c1C(NS(N)(=O)=O)C(F)(F)C2 (single isomer, unassigned) [Example 4, N-[(1S*)-5-cyano-2,2-difluoro-7-methyl-2,3-dihydro-1H-inden-1-yl]sulfamide] | – | 0 | Seizure severity score (Average) [1, 6]: 0
N#Cc1cc(Cl)c2c(c1)CC[C@H]2NS(N)(=O)=O (single isomer, unassigned) [Example 22b, (−)-N-(7-chloro-5-cyano-2,3-dihydro-1H-inden-1-yl)sulfamide] | 3 | – | Seizure severity score (Average) [1, 7]: 0
NS(=O)(=O)NC1c2c(ccc(F)c2F)CC1(F)F (single isomer, unassigned; (-)) [Example 5, (−)-N-(2,2,6,7-tetrafluoro-2,3-dihydro-1H-inden-1-yl)sulfamide] | 2 | 0 | ED50 [1]: 5.7 mg/kg; Therapeutic index [2]: 70.9; TD50 [3]: 404 mg/kg
NS(=O)(=O)NC1CCc2c(F)cc(F)c(F)c21 (single isomer, unassigned; (-)) [Example 29, (−)-N-(4,6,7-trifluoro-2,3-dihydro-1H-inden-1-yl)sulfamide] | 3.5 | 0.83 | ED50 [1]: 15.8 mg/kg; Seizure severity score (Average) [1, 6]: 0; Therapeutic index [2]: 9.93; TD50 [3]: 157 mg/kg
NS(=O)(=O)NC1c2c(F)c(F)cc(F)c2CC1(F)F (single isomer, unassigned; (+)) [Example 3, (+)-N-(2,2,4,6,7-pentafluoro-2,3-dihydro-1H-inden-1-yl)sulfamide] | 1.5 | 0 | –
NS(=O)(=O)N[C@H]1c2c(F)ccc(F)c2CC1(F)F [Example 2, N-[(1S)-2,2,4,7-tetrafluoro-2,3-dihydro-1H-inden-1-yl]sulfamide] | 4 | 0 | ED50 [1]: 15.4 mg/kg; Seizure severity score (Average) [1, 6]: 0; Therapeutic index [2]: >13.0; TD50 [3]: > 200 mg/kg
NS(=O)(=O)NC1c2c(F)cc(Cl)cc2CC1(F)F (single isomer, unassigned; (+)) [Example 10, (+)-N-(5-chloro-2,2,7-trifluoro-2,3-dihydro-1H-inden-1-yl)sulfamide] | 0 | 0 | –
Cc1cccc2c1C(NS(N)(=O)=O)CC2 (single isomer, unassigned; (+)) [Example 27, (+)-N-(7-methyl-2,3-dihydro-1H-inden-1-yl)sulfamide] | 3 | 0 | –
NS(=O)(=O)NC1CCc2cc(Cl)cc(F)c21 (single isomer, unassigned; (-)) [Example 23, (−)-N-(5-chloro-7-fluoro-2,3-dihydro-1H-inden-1-yl)sulfamide] | 4.25 | 0 | –
Cc1ccc(F)c2c1[C@@H](NS(N)(=O)=O)CC2 [Example 28b, (−)-N-(4-fluoro-7-methyl-2,3-dihydro-1H-inden-1-yl)sulfamide] | – | 0 | Seizure severity score (Average) [1, 8]: 3.75
Cc1cc(F)cc2c1C(NS(N)(=O)=O)CC2 (racemic) [Example 26, (±)-N-(5-fluoro-7-methyl-2,3-dihydro-1H-inden-1-yl)sulfamide] | 4.25 | 0 | –
NS(=O)(=O)NC1c2c(Cl)ccc(F)c2CC1(F)F (single isomer, unassigned; (-)) [Example 7, (−)-N-(7-chloro-2,2,4-trifluoro-2,3-dihydro-1H-inden-1-yl)sulfamide] | – | – | Seizure severity score (Average) [1, 9]: 3.5; Seizure severity score (Average) [1, 10]: 0.25
Cc1cc(C#N)cc2c1C(NS(N)(=O)=O)CC2 (single isomer, unassigned) [Example 25a, (+)-N-(5-cyano-7-methyl-2,3-dihydro-1H-inden-1-yl)sulfamide] | – | 0 | Seizure severity score (Average) [1, 8]: 1.75
NS(=O)(=O)NC1CCc2c(F)ccc(Cl)c21 (single isomer, unassigned; (+)) [Example 20, (+)-N-(7-chloro-4-fluoro-2,3-dihydro-1H-inden-1-yl)sulfamide] | – | – | Seizure severity score (Average) [1, 9]: 3.25; Seizure severity score (Average) [1, 10]: 0
NS(=O)(=O)N[C@@H]1c2c(Cl)ccc(F)c2C[C@H]1F (relative stereo) [Example 16b, (+)-N-[(1R*,2R*)-7-chloro-2,4-difluoro-2,3-dihydro-1H-inden-1-yl]sulfamide] | 3.75 | – | Seizure severity score (Average) [1, 7]: 0.5
NS(=O)(=O)NC1CCc2c(Cl)ccc(F)c21 (single isomer, unassigned; (-)) [Example 31, (−)-N-(4-chloro-7-fluoro-2,3-dihydro-1H-inden-1-yl)sulfamide] | 1.5 | 0 | –
Cc1ccc(F)c2c1[C@@H](NS(N)(=O)=O)CC2 (single isomer, unassigned) [Example 28a, (+)-N-(4-fluoro-7-methyl-2,3-dihydro-1H-inden-1-yl)sulfamide] | – | 0 | Seizure severity score (Average) [1, 8]: 4
NS(=O)(=O)N[C@@H]1c2c(F)ccc(F)c2C[C@H]1F (relative stereo) [Example 15, N-[(1R*,2R*)-2,4,7-trifluoro-2,3-dihydro-1H-inden-1-yl]sulfamide] | 3 | 0 | –
NS(=O)(=O)N[C@@H]1c2c(Cl)ccc(F)c2C[C@H]1F (relative stereo) [Example 16a, (−)-N-[(1R*,2R*)-7-chloro-2,4-difluoro-2,3-dihydro-1H-inden-1-yl]sulfamide] | – | – | Seizure severity score (Average) [1, 7]: 0
Cc1cc(C#N)cc2c1[C@@H](NS(N)(=O)=O)CC2 [Example 25b, (−)-N-(5-cyano-7-methyl-2,3-dihydro-1H-inden-1-yl)sulfamide] | – | 0 | Seizure severity score (Average) [1, 8]: 1
Cc1ccc(F)c2c1C(NS(N)(=O)=O)C(F)(F)C2 (single isomer, unassigned) [Example 13, N-[(1S*)-2,2,4-trifluoro-7-methyl-2,3-dihydro-1H-inden-1-yl]sulfamide] | 0 | – | –
NS(=O)(=O)NC1c2c(cccc2C(F)F)CC1(F)F (single isomer, unassigned) [Example 14, N-[(1S*)-7-(difluoromethyl)-2,2-difluoro-2,3-dihydro-1H-inden-1-yl]sulfamide] | – | 0 | –
CO[C@@H]1Cc2c(Cl)ccc(F)c2[C@H]1NS(N)(=O)=O (relative stereo) [Example 18, (+)-N-[(1R*,2R*)-4-chloro-7-fluoro-2-methoxy-2,3-dihydro-1H-inden-1-yl]sulfamide] | 2 | 0 | –
